Data set [1] concerns CD34+CD31−CD45− cells (MSC) from WAT. Description: Synchronous in vivo phage display biopanning, clones recovered from WAT MSC (ASC). The arrangement: species or system mouse. The following applies: percent of sequenced phage clones carrying the insert in WAT after 4 rounds of synchronous in vivo biopanning on CD34+CD31−CD45− cells. From the text: (§1) Phage Library Screening: Random peptide libraries based on the M13-derived bacteriophage vector fUSE5 displaying inserts CX7C, CX8C, and CX9C on the pIII protein were admixed (1:1:1) to the combined 10^10 TU of mixed library for the screen performed based on the synchronous biopanning in vivo upon tail vein injection (see for example, US20050074747 and Arap, et al., Nat. Med. 8:121-127, 2002; Kolonin, et al., FASEB J. 20: 979-981, 2006).
(§2) For competitive homing experiment, 5×10^9 TU for each of the 11 chosen phage clones were admixed and the combined 5.5×10^10 TU was injected. For validation of individual clones, 1×10^10 TU for each phage clones was injected. After 1 hr of circulation and heart perfusion with 10 ml of phosphate buffer saline (PBS), WAT, tibia/femurs, bone-associated skeletal muscle, and lungs were collected. Bone marrow was isolated by flushing tibia/femurs. Hematopoietic and endothelial cells were depleted from cell suspensions of each organ by Dynabeads (Invitrogen) coated with anti-TER119, anti-CD31, and anti-CD45 antibodies (BD Biosciences), after which the remaining cells were processed by FACS to purify CD34+CD31−CD45− cells. Bound phage were recovered by infecting K91 E. coli, quantified by phage transforming unit (TU) counting, and processed for sequencing of the peptide-coding DNA as described in Arap, et al. 2002, ibid and Kolonin, et al., 2006, ibid. For identification of conserved peptide motifs, ClustalW2 software was used.
(§3) Methods for isolation of MSC by fluorescence-activated cell sorting (FACS) from organ cell suspensions based on the C34+CD31−CD45− immunophenotype (FIG. 8B) were combined with phage display and optimized for ASC. By adapting the previously described “synchronous in vivo biopanning” method of (Kolonin et al., 2006, ibid), a mixture of cyclic CX7C, CX8C, and CX9C (C: disulfide-bonded cysteines; X: any amino acid) random peptide libraries was screened (FIG. 1A). This approach made it possible to select MSC probes from the pool of over 10^11 combinatorial peptides. Throughout the screen, progressive enrichment in the number of phage particles recovered on MSC from WAT, as well as from the chosen control organs: lung, bone marrow, and skeletal muscle (FIG. 1B) was observed.
(§4) After 4 rounds of synchronous in vivo biopanning, eight CX7C and CX8C sequences repeatedly recovered from ASC with frequency above 1% were identified, which were termed WAT1 through WAT8 (see Table 1 below). In parallel, a matched number of peptide inserts homing to lung stromal cells (LSC) were sequenced as a control. None of the WAT-homing peptides were enriched in the lung. Four sequences repeatedly recovered in the lung with frequency above 1%, were termed LU1 through LU4 (see Table 1 below). […] Because the focus of this study is WAT-specific MSC, this clone was excluded from further analysis. Other selected peptides were subjected to an in vivo competition assay in order to identify those with the highest specificity of binding. Equal amounts of phage for the 11 clones displaying peptides WAT1 through WAT7 (SEQ ID NOS: 1-14) and LU1 through LU4 (SEQ ID NOS: 17-24) were admixed and injected into a mouse. Homing specificity of each clone was assessed by quantifying frequency of phage coding for each peptide selected on C34+CD31−CD45− cells isolated from either WAT or lung.
(§5) Shown in Table 1 above are the percent (%) of the sequenced phage clones that carried the indicated WAT or LU insert present within WAT (% in WAT) or lung (% in LUNG) following 4 rounds of synchronous in vivo biopanning on CD34+CD31−CD45− cells.

In data set [2] the test system is C34+CD31−CD45− cells isolated from WAT. Nature of the data set: In vivo competition (re-homing) assay of 11 admixed phage clones, WAT. The following applies: equal amounts of 11 phage clones mixed and injected; percent of sequenced clones on C34+CD31−CD45− cells from WAT. The arrangement: species or system mouse. As to the method:
as §2, §4

Data set [3] has as its system C34+CD31−CD45− cells isolated from lung. Description: In vivo competition (re-homing) assay of 11 admixed phage clones, lung. The arrangement: species or system mouse. The following applies: equal amounts of 11 phage clones mixed and injected; percent of sequenced clones on C34+CD31−CD45− cells from lung. As to the method:
as §2, §4

For data set [4], the target named is T1, recombinant bacterially-purified full-length core mouse DCN (mDCN) (Mus musculus, UniProt P28654).
T1 construct: cloning fragments encoding amino acids 1-354 and 45-354 of mouse DCN cDNA (OriGene); His6; made in house
T1 sequence (P28654 17-354): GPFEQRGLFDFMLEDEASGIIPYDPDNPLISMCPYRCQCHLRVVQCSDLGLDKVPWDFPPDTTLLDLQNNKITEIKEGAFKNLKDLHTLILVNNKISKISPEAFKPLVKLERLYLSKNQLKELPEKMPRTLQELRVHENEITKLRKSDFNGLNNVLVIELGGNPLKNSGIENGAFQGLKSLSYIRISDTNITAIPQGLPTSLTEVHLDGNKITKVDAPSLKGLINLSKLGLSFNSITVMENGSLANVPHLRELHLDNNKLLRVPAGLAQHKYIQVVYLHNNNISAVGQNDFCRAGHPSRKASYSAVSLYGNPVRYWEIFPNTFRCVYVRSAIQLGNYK
Description: ELISA binding assay, recombinant full-length core mouse DCN. The following applies: His6-tagged protein coated at 10 μg/ml. From the text:
Immunoblotting and Binding Assays: Protein preparations resolved on SDS-PAGE were blotted onto Immobilon-FL membrane (Millipore), blocked with Odyssey blocking buffer (Licor Biosciences), and probed (in PBS/0.05% Triton X-100) with goat anti-DCN (R&D Systems, 1:1,000), rabbit anti-ANX2A (Aviva, 1:1,000), rabbit anti-mouse b-actin (Abcam, 1:10,000) antibodies, or pre- and post-immune antisera against WAT7 (1:1,000) as indicated. Signal was detected by Odyssey imaging system using anti-goat IRDye 800CW or anti-rabbit IRDye 680 both from Licor Biosciences. Bovine DCN was from Sigma-Aldrich, NS0-derived murine DCN was from R&D Systems. Murine DCN cDNA was generated from WAT total RNA using SuperScript kit (Invitrogen). For bacterial expression, full-length mouse core DCN and ΔDCN isoforms were produced by cloning fragments encoding amino acids 1-354 and 45-354 of mouse DCN cDNA (OriGene) or of CLIC4 cDNA (OriGene) in-frame with the His6Tag into pET28a vector, respectively. His6-tagged proteins were purified with His-Tag kit (Novagen). […] Bound peptides or FLAG-resistin were probed with corresponding rabbit anti-peptide Genemed antibodies (1:2,000) or rabbit anti-FLAG antibodies (Sigma-Aldrich, 1:2,000) followed by secondary goat anti-rabbit HRP-conjugated antibodies (Millipore, 1:5,000) and signal detection with Ultra-TMB (Pierce) substrate and measurement of absorbance at 450 nm. […]

Data set [5] concerns CD34+CD31−CD45− cells (MSC) from lung. Description: Synchronous in vivo phage display biopanning, clones recovered from lung MSC (LSC). The arrangement: species or system mouse. The settings on record: percent of sequenced phage clones carrying the insert in lung after 4 rounds of synchronous in vivo biopanning on CD34+CD31−CD45− cells.
From the text: as §1, §2, §3, §4, §5

For data set [6], the system named is stroma/vasculature of lung. Nature of the data set: Biodistribution of peptide-displaying phage by anti-phage immunofluorescence, lung. In kind it is in vivo, mouse. The settings on record: intravenous injection, immunofluorescence of tissue sections. An excerpt:
(§6) FIGS. 2A-J depict the validation of cyclic WAT7 Peptide (SEQ ID NOS: 13) Homing to ASC. Panels A-D are confocal anti-phage (red) and anti-CD31 (bright green) immunofluorescence in paraffin sections of formalin-fixed WAT and lung from mice intravenously injected with phage displaying WAT-homing peptide WAT7 (SEQ ID NOS: 13 AND 14) or a lung-homing peptide LU2 (SEQ ID NOS: 19). […] upon digital channel merging indicates localization (arrow) of phage on non-endothelial perivascular cells observed for WAT7 (SEQ ID NOS: 13) in WAT (A) but not in lung (B), and for LU2 (SEQ ID NO: 19) in lung (D) but not in WAT (C). […] Note the association (arrow) of cyclic WAT7 (SEQ ID NOS: 13) specifically with perivascular WAT cells (E) in a pattern overlapping with PDGFRβ expressed on ASC (F-G). Like PDGFRβ, WAT7 is not associated with CD31+ endothelial cells (E) or CD45+ hematopoietic cells (H). WAT7 was not detected in lung (I) despite the abundance of PDGFRβ+LSC (J). Nuclear TOPRO3 staining is blue. Scale bar: 100 μM.
(§7) Mouse Tissue and Cell Analysis by Immunofluorescence: Peptides chemically synthesized, cyclized via their N- and C-terminal cysteines, purified to at least 95% purity (Genemed), and biotinylated were injected (500 μg) via tail vein and allowed to circulate for 1 hr. […] Fluorescence images were acquired with an Olympus IX70 inverted fluorescence microscope/Magnafire software (Olympus). […]

Data set [7] concerns perivascular WAT cells (PDGFRβ+ ASC). Description: Biodistribution of biotinylated synthetic cyclic peptide (streptavidin-Cy3), WAT. In kind it is in vivo, mouse. The settings on record: biotinylated cyclic peptide i.v., 1 hr, CD31 / CD45 co-staining.
From the text: as §6, §7

Turning to “YKNVDSGG [WAT-2, used as control peptide]”, in data set [1], the “% in WAT” value was 2.9%. For the same molecule, the “Re-home to WAT (%)” value in data set [2] was determined as 2.1%. The “Re-home to Lung (%)” value in data set [3] came to 2.9%. Also, in data set [4], the “binding to recombinant core mouse DCN (OD450)” value is recorded as “did not display DCN binding”. Further, in data set [5], the “% in LUNG” value amounted to 0%.

Take ESGFPTVG [LU-2, control]: in data set [6], the “phage accumulation in lung” value is “associated with the stroma/vasculature of lung”. Besides, in data set [1], the “% in WAT” value came out at 0%. Further, in data set [3], the “Re-home to Lung (%)” value amounted to 40.2%. Further, in data set [5], the “% in LUNG” value worked out at 14.7%.

In the case of `NCCCC[C@@H]1NC(=O)[C@H](Cc2c[nH]c3ccccc23)NC(=O)[C@H](CO)NC(=O)[C@@H](N)CSSC[C@@H](C(=O)O)NC(=O)[C@H](CCC(=O)O)NC(=O)CNC(=O)[C@H](Cc2ccccc2)NC(=O)[C@H](Cc2c[nH]c3ccccc23)NC(=O)[C@H](Cc2ccc(O)cc2)NC1=O` [WAT-7, SWKYWFGE], in data set [7], the “co-localization with endothelial cells or CD45+ hematopoietic cells in WAT” value was “did not co-localize”.

Source of the values: patent US9539341B2, “Methods and compositions for targeting adipose cells in mammals” (Board of Regents, the University of Texas System, priority 2011, dated 2017).
